Eight compounds from patent US20110086759A1, “CHEMICAL COMPOUNDS” (SYNGENTA CROP PROTECTION, INC., priority 2007, published 2011) can be followed below.

Common to all, as to type: in vivo
Test [1] relates to Alopecurus myosuroides (ALOMY). Kind of test: Post-emergence biological efficacy, glasshouse pot test. The conditions noted are these: 312 h, Rate 1,000 g/ha, post-emergence spray, evaluated after 13 days (100=total damage to plant; 0=no damage to plant), read-out: Percentage damage caused to weed species, post-emergence, ALOMY. The gist of the method: (§1)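 Scored 13 days after spraying on a 0 (no damage) to 100 (total damage) scale. Treatment was a post-emergence spray at 1000 or 250 g/ha, from acetone/water 50:50 plus 0.5% Tween 20, onto 8-day-old plants in soil pots. Growth at 24/16° C, 14 h photoperiod, 65% humidity, watered twice daily.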

The subject of test [2] is Setaria faberi (SETFA). The description is as above. The conditions noted are these: 312 h, Rate 1,000 g/ha, post-emergence spray, evaluated after 13 days (100=total damage to plant; 0=no damage to plant), read-out: Percentage damage caused to weed species, post-emergence, SETFA. The gist of the method:
as §1

Test [3] concerns Echinochloa crus-galli (ECHCG). The test is described as above. To be noted: 312 h, Rate 1,000 g/ha, post-emergence spray, evaluated after 13 days (100=total damage to plant; 0=no damage to plant), read-out: Percentage damage caused to weed species, post-emergence, ECHCG. The method in brief:
as §1

The subject of test [4] is Solanum nigrum (SOLNI). The description is as above. The conditions noted are these: 312 h, Rate 1,000 g/ha, post-emergence spray, evaluated after 13 days (100=total damage to plant; 0=no damage to plant), read-out: Percentage damage caused to weed species, post-emergence, SOLNI. The gist of the method: as §1
The test system of test [5] is Ipomea hederaceae (IPOHE). The test is described as above. To be noted: Ipomoea hederacea, 312 h; Rate 1,000 g/ha; post-emergence spray; evaluated after 13 days (100=total damage to plant; 0=no damage to plant); read-out: Percentage damage caused to weed species, post-emergence, IPOHE. The gist of the method:
as §1

Test [6] concerns Amaranthus retoflexus (AMARE). Described as above. The conditions noted are these: Amaranthus retroflexus, 312 h; Rate 1,000 g/ha; post-emergence spray; evaluated after 13 days (100=total damage to plant; 0=no damage to plant); read-out: Percentage damage caused to weed species, post-emergence, AMARE. The gist of the method: as §1
Test [7] deals with Alopecurus myosuroides (ALOMY). Briefly: Pre-emergence biological efficacy, glasshouse pot test. The conditions noted are these: 312 h, pre-emergence, rate 1,000 g/ha, evaluated after 13 days (100=total damage to plant; 0=no damage), read-out: Percentage damage caused to weed species, ALOMY. The method in brief:
(§2)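 Damage was rated on a 0–100 scale 13 days after treatment, with plants kept at 24/16° C, 14 h light and 65% humidity. The pre-emergence spray, at 1000 or 250 g/ha in acetone/water 50:50 with 0.5% Tween 20, was applied one day after sowing.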

Test [8] concerns Setaria faberi (SETFA). The test is described as above. To be noted: 312 h, pre-emergence, rate 1,000 g/ha, evaluated after 13 days (100=total damage to plant; 0=no damage), read-out: Percentage damage caused to weed species, SETFA. The method in brief:
as §2

The test system of test [9] is Echinochloa crus-galli (ECHCG). Described as above. The conditions noted are these: 312 h, pre-emergence, rate 1,000 g/ha, evaluated after 13 days (100=total damage to plant; 0=no damage), read-out: Percentage damage caused to weed species, ECHCG. The method in brief: as §2
Test [10] deals with Solanum nigrum (SOLNI). Described as above. The conditions noted are these: 312 h, pre-emergence, rate 1,000 g/ha, evaluated after 13 days (100=total damage to plant; 0=no damage), read-out: Percentage damage caused to weed species, SOLNI. The gist of the method: as §2
Test [11] has as its system Ipomea hederaceae (IPOHE). The test is described as above. To be noted: Ipomoea hederacea, 312 h; pre-emergence, rate 1,000 g/ha, evaluated after 13 days (100=total damage to plant; 0=no damage); read-out: Percentage damage caused to weed species, IPOHE. The method in brief:
as §2

In test [12] the test system is Amaranthus retoflexus (AMARE). The description is as above. To be noted: Amaranthus retroflexus, 312 h; pre-emergence, rate 1,000 g/ha, evaluated after 13 days (100=total damage to plant; 0=no damage); read-out: Percentage damage caused to weed species, AMARE. The gist of the method: as §2

Turning to `COC(=O)c1nc(-c2ccc(C)c(C)c2)nc(NCc2ccco2)c1Cl` [Compound 255-48, 5-Chloro-2-(3,4-dimethylphenyl)-4-(furan-2-yl-methyl-amino)-6-methoxy-carbonylpyrimidine], the pest or weed control at 1000 g/ha in test [1] is 0%; with Setaria faberi (SETFA) [2], 0%; in test [3], 0%; in the test with Solanum nigrum (SOLNI) [4], 40%; in [5], 10%; in test [6] it was 70%. In addition, the pest or weed control at 1000 g/ha in [7] worked out at 0%; in the test with Setaria faberi (SETFA) [8], 0%; in test [9], 0%; in the test with Solanum nigrum (SOLNI) [10], 0%; in test [11], 10%; in test [12] it was 20%.

With `COC(=O)c1nc(-c2ccc(C)c([N+](=O)[O-])c2)nc(NCc2ccco2)c1Cl` [Compound 256-48, 5-Chloro-4-(furan-2-ylmethylamino)-6-methoxycarbonyl-2-(4-methyl-3-nitrophenyl)-pyrimidine], the pest or weed control at 1000 g/ha in [1] worked out at 0%; with Setaria faberi (SETFA) [2], 10%; in [3], 0%; in the test with Solanum nigrum (SOLNI) [4], 50%; in test [5], 20%; in [6], 30%. Moreover, the pest or weed control at 1000 g/ha in test [7] came to 0%; in the test with Setaria faberi (SETFA) [8], 0%; in test [9] it was 0%; in the test on Solanum nigrum (SOLNI) [10], 0%; in [11], 0%; in test [12], 80%.

For `COC(=O)c1nc(-c2ccc(C)cc2F)nc(NCc2ccco2)c1Cl` [Compound 257-48, 5-Chloro-2-(2-fluoro-4-methylphenyl)-4-(furan-2-ylmethylamino)-6-methoxycarbonyl-pyrimidine], the pest or weed control at 1000 g/ha in test [1] was determined as 20%; in the test with Setaria faberi (SETFA) [2] it was 0%; in test [3] it was 10%; in the test on Solanum nigrum (SOLNI) [4], 40%; in test [5] it was 60%; in test [6] it was 100%. Moreover, the pest or weed control at 1000 g/ha in [7] came to 20%; in the test on Setaria faberi (SETFA) [8], 10%; in test [9], 40%; in the test on Solanum nigrum (SOLNI) [10], 10%; in test [11] it was 30%; in [12], 90%.

Consider `COC(=O)c1nc(-c2ccc(OC)cc2F)nc(NCc2ccco2)c1Cl` [Compound 258-48, 5-Chloro-2-(2-fluoro-4-methoxyphenyl)-4-(furan-2-ylmethyl-amino)-6-methoxy-carbonylpyrimidine], for which the pest or weed control at 1000 g/ha in test [1] turned out to be 10%; in the test with Setaria faberi (SETFA) [2], 40%; in test [3] it was 0%; in the test on Solanum nigrum (SOLNI) [4] it was 50%; in test [5], 30%; in test [6], 90%. Also, the pest or weed control at 1000 g/ha in test [7] is 30%; with Setaria faberi (SETFA) [8], 20%; in test [9], 0%; with Solanum nigrum (SOLNI) [10], 0%; in test [11] it was 30%; in [12], 70%.

On to `COC(=O)c1nc(-c2ccc(OC)c(OC)c2)nc(NCc2ccco2)c1Cl` [Compound 260-48, 5-Chloro-2-(3,4-dimethoxyphenyl)-4-(furan-2-ylmethyl-amino)-6-methoxy-carbonylpyrimidine], for which the pest or weed control at 1000 g/ha in [1] turned out to be 0%; in the test with Setaria faberi (SETFA) [2], 0%; in test [3] it was 0%; in the test on Solanum nigrum (SOLNI) [4] it was 30%; in [5], 0%; in test [6], 20%. The pest or weed control at 1000 g/ha (in test [7]; in the test with Setaria faberi (SETFA) [8]; in [9]; in the test with Solanum nigrum (SOLNI) [10]; in [11]; in [12]) was 0% each time.

In the case of `COC(=O)c1nc(-c2ccc(Cl)c(N(C)C)c2F)nc(NCc2ccco2)c1Cl` [Compound 261-48, 5-Chloro-2-(4-chloro-3-dimethylamino-2-fluorophenyl)-4-(furan-2-yl-methyl-amino)-6-methoxy-carbonylpyrimidine], the pest or weed control at 1000 g/ha is 50% in [1]; 90% with Setaria faberi (SETFA) [2]; 70% in [3]; 80% in the test with Solanum nigrum (SOLNI) [4]; 60% in test [5]; 100% in test [6]. Further, the pest or weed control at 1000 g/ha was 50% in test [7]; 90% in the test with Setaria faberi (SETFA) [8]; 90% in test [9]; 40% in the test on Solanum nigrum (SOLNI) [10]; 30% in [11]; 100% in test [12].

For `COC(=O)c1nc(-c2ccc(Cl)s2)nc(NC2CC2)c1Cl` [Compound 262-30, 5-Chloro-2-(5-chloro-thiophen-2-yl)-4-cyclopropylamino-6-methoxycarbonyl-pyrimidine], the pest or weed control at 1000 g/ha in test [1] is 0%; with Setaria faberi (SETFA) [2] it was 10%; in [3], 10%; in the test on Solanum nigrum (SOLNI) [4], 90%; in [5], 50%; in test [6], 80%. The pest or weed control at 1000 g/ha (in [7]; in the test with Setaria faberi (SETFA) [8]; in test [9]; in the test on Solanum nigrum (SOLNI) [10]; in [11]; in test [12]) was 0% throughout.

Regarding `COC(=O)c1nc(-c2ccc(Cl)s2)nc(NCc2ccco2)c1Cl` [Compound 262-48, 5-Chloro-2-(5-chlorothiophen-2-yl)-4-(furan-2-yl-methylamino)-6-methoxycarbonyl-pyrimidine], the pest or weed control at 1000 g/ha in test [1] was found to be 20%; in the test with Setaria faberi (SETFA) [2], 0%; in test [3], 20%; with Solanum nigrum (SOLNI) [4], 80%; in [5] it was 60%; in test [6], 100%. In addition, the pest or weed control at 1000 g/ha in test [7] amounted to 0%; in the test with Setaria faberi (SETFA) [8], 0%; in test [9] it was 0%; in the test with Solanum nigrum (SOLNI) [10] it was 20%; in test [11] it was 0%; in test [12] it was 80%.
